# According to ChEMBL document CHEMBL1201862, “PubChem BioAssay data set” (2004):
#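 All cell lines were grown in 96-well plates and treated with compound for 48 hours. GI50 is the concentration that inhibits growth by half.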 Calls of active or inactive are those of the source. No stated cut-off is given here; in the data, active = GI50 up to about 1.1 µM and inactive = higher.
# Legend:
# Assay in all cases: inhibition of tumour cell growth, NCI panel, 48 h
# MDA-MB-231 = system: MDA-MB-231
# SF-268 = system: SF-268
# MOLT-4 = system: MOLT-4
# HCT-116 = system: HCT-116
# OVCAR-4 = system: OVCAR-4
# COLO 205 = system: COLO 205
# OVCAR-5 = system: OVCAR-5
# UACC-62 = system: UACC-62
# HCT-15 = system: HCT-15
# HOP-92 = system: HOP-92
# NCI/ADR-RES = system: NCI/ADR-RES
# LOX IMVI = system: LOX IMVI
# SK-OV-3 = system: SK-OV-3
# NCI-H460 = system: NCI-H460
# OVCAR-8 = system: OVCAR-8
# ACHN = system: ACHN
# CAKI-1 = system: CAKI-1
# SW-620 = system: SW-620
# MDA-MB-435 = system: MDA-MB-435
# PC-3 = system: PC-3
# BT-549 = system: BT-549
# Malme-3M = system: Malme-3M
# SNB-19 = system: SNB-19
# SNB-75 = system: SNB-75
# A498 = system: A498
# TK-10 = system: TK-10
# EKVX = system: EKVX
# HT-29 = system: HT-29
# CCRF-CEM = system: CCRF-CEM
# SN12C = system: SN12C
# HCC 2998 = system: HCC 2998
# HL-60 = system: HL-60
# SK-MEL-28 = system: SK-MEL-28
# SK-MEL-5 = system: SK-MEL-5
# NCI-H226 = system: NCI-H226
# M14 = system: M14
# DU-145 = system: DU-145
# IGROV-1 = system: IGROV-1
# 786-0 = system: 786-0
# NCI-H522 = system: NCI-H522
# RPMI-8226 = system: RPMI-8226
# K562 = system: K562
# A549 = system: A549
# UACC-257 = system: UACC-257
# U-251 = system: U-251
# HOP-62 = system: HOP-62
# SF-539 = system: SF-539
# OVCAR-3 = system: OVCAR-3
# UO-31 = system: UO-31
# KM12 = system: KM12
# NCI-H23 = system: NCI-H23
# SK-MEL-2 = system: SK-MEL-2
# SF-295 = system: SF-295
# MCF7 = system: MCF7
# SR = system: SR
# MDA-N = system: MDA-N
# Hs-578T = system: Hs-578T
# RXF 393 = system: RXF 393
compound,measurement,setting,value
Nc1ccccc1-n1c2c(c3ccccc3c1=O)C(=O)c1ccccc1-2,GI50,MDA-MB-231,23.9 µM (inactive)
same,GI50,SF-268,8.24 µM (inactive)
same,GI50,MOLT-4,4.25 µM (inactive)
same,GI50,HCT-116,20.8 µM (inactive)
same,GI50,OVCAR-4,4.11 µM (inactive)
same,GI50,COLO 205,26.1 µM (inactive)
same,GI50,OVCAR-5,> 100 µM (inactive)
same,GI50,UACC-62,17.2 µM (inactive)
same,GI50,HCT-15,38 µM
same,GI50,HOP-92,16.6 µM (inactive)
same,GI50,NCI/ADR-RES,14.6 µM (inactive)
same,GI50,LOX IMVI,12.5 µM (inactive)
same,GI50,SK-OV-3,6.98 µM (inactive)
same,GI50,NCI-H460,24.5 µM (inactive)
same,GI50,OVCAR-8,14.5 µM (inactive)
same,GI50,ACHN,5.53 µM (inactive)
same,GI50,CAKI-1,16.7 µM (inactive)
same,GI50,SW-620,14.5 µM (inactive)
same,GI50,MDA-MB-435,57.9 µM (inactive)
same,GI50,PC-3,16.1 µM (inactive)
same,GI50,BT-549,0.857 µM (active)
same,GI50,Malme-3M,16.3 µM (inactive)
same,GI50,SNB-19,5 µM (inactive)
same,GI50,SNB-75,11.8 µM (inactive)
same,GI50,A498,54.5 µM (inactive)
same,GI50,TK-10,> 10 µM (inactive)
same,GI50,EKVX,27.6 µM (inactive)
same,GI50,HT-29,18.4 µM (inactive)
same,GI50,CCRF-CEM,48.9 µM (inactive)
same,GI50,SN12C,42 µM (inactive)
same,GI50,HCC 2998,21.8 µM (inactive)
same,GI50,HL-60,0.046 µM (active)
same,GI50,SK-MEL-28,36.5 µM (inactive)
same,GI50,SK-MEL-5,10.4 µM (inactive)
same,GI50,NCI-H226,< 0.01 µM (active)
same,GI50,M14,61.7 µM (inactive)
same,GI50,DU-145,34 µM (inactive)
same,GI50,IGROV-1,9.68 µM (inactive)
same,GI50,786-0,7.62 µM (inactive)
same,GI50,NCI-H522,6.58 µM (inactive)
same,GI50,RPMI-8226,60.1 µM (inactive)
same,GI50,K562,> 100 µM (inactive)
same,GI50,A549,11.5 µM (inactive)
same,GI50,UACC-257,35.9 µM (inactive)
same,GI50,U-251,15.2 µM (inactive)
same,GI50,HOP-62,7.14 µM (inactive)
same,GI50,SF-539,3.13 µM (inactive)
same,GI50,OVCAR-3,21.8 µM (inactive)
same,GI50,UO-31,11.1 µM (inactive)
same,GI50,KM12,71.6 µM (inactive)
same,GI50,NCI-H23,7.5 µM (inactive)
same,GI50,SK-MEL-2,19.9 µM (inactive)
same,GI50,SF-295,9.1 µM (inactive)
same,GI50,MCF7,13.3 µM (inactive)
O=Cc1cn(CCCCCn2cc(C=O)c3ccccc32)c2ccccc12,GI50,MDA-MB-231,54.6 µM (inactive)
same,GI50,SF-268,16.7 µM (inactive)
same,GI50,MOLT-4,> 100 µM (inactive)
same,GI50,HCT-116,> 100 µM (inactive)
same,GI50,COLO 205,> 100 µM (inactive)
same,GI50,OVCAR-5,1.68 µM (inactive)
same,GI50,UACC-62,> 100 µM (inactive)
same,GI50,HCT-15,> 100 µM
same,GI50,HOP-92,> 100 µM (inactive)
same,GI50,NCI/ADR-RES,> 100 µM (inactive)
same,GI50,LOX IMVI,41.5 µM (inactive)
same,GI50,SK-OV-3,> 100 µM (inactive)
same,GI50,NCI-H460,0.124 µM (active)
same,GI50,OVCAR-8,> 100 µM (inactive)
same,GI50,ACHN,> 100 µM (inactive)
same,GI50,CAKI-1,> 100 µM (inactive)
same,GI50,SW-620,> 100 µM (inactive)
same,GI50,MDA-MB-435,> 100 µM (inactive)
same,GI50,PC-3,> 100 µM (inactive)
same,GI50,BT-549,> 100 µM (inactive)
same,GI50,Malme-3M,> 100 µM (inactive)
same,GI50,SNB-19,> 100 µM (inactive)
same,GI50,SR,> 100 µM (inactive)
same,GI50,A498,5.71 µM (inactive)
same,GI50,TK-10,> 100 µM (inactive)
same,GI50,EKVX,> 100 µM (inactive)
same,GI50,HT-29,> 100 µM (inactive)
same,GI50,CCRF-CEM,> 100 µM (inactive)
same,GI50,SN12C,> 100 µM (inactive)
same,GI50,HL-60,> 100 µM (inactive)
same,GI50,SK-MEL-5,> 100 µM (inactive)
same,GI50,MDA-N,> 100 µM (inactive)
same,GI50,NCI-H226,0.262 µM (active)
same,GI50,M14,> 100 µM (inactive)
same,GI50,DU-145,> 100 µM (inactive)
same,GI50,IGROV-1,> 100 µM (inactive)
same,GI50,786-0,71.4 µM (inactive)
same,GI50,NCI-H522,8.18 µM (inactive)
same,GI50,RPMI-8226,> 100 µM (inactive)
same,GI50,K562,> 10 µM (inactive)
same,GI50,A549,> 100 µM (inactive)
same,GI50,UACC-257,> 100 µM (inactive)
same,GI50,Hs-578T,25 µM (inactive)
same,GI50,RXF 393,6.55 µM (inactive)
same,GI50,U-251,67.9 µM (inactive)
same,GI50,SF-539,> 100 µM (inactive)
same,GI50,OVCAR-3,> 100 µM (inactive)
same,GI50,UO-31,> 100 µM (inactive)
same,GI50,NCI-H23,> 100 µM (inactive)
same,GI50,SK-MEL-2,> 100 µM (inactive)
same,GI50,SF-295,10.4 µM (inactive)
COC(=O)C(Cc1cn(C(C)n2cc(CC(NC(C)=O)C(=O)OC)c3ccccc32)c2ccccc12)NC(C)=O (configuration not stated),GI50,MDA-MB-231,44.5 µM (inactive)
same,GI50,SF-268,48.1 µM (inactive)
same,GI50,MOLT-4,34 µM (inactive)
same,GI50,HCT-116,> 100 µM (inactive)
same,GI50,OVCAR-4,> 100 µM (inactive)
same,GI50,COLO 205,> 100 µM (inactive)
same,GI50,OVCAR-5,> 100 µM (inactive)
same,GI50,UACC-62,98.2 µM (inactive)
same,GI50,HCT-15,> 100 µM
same,GI50,HOP-92,52.5 µM (inactive)
same,GI50,SK-OV-3,> 100 µM (inactive)
same,GI50,NCI-H460,63.2 µM (inactive)
same,GI50,CAKI-1,> 100 µM (inactive)
same,GI50,SW-620,> 100 µM (inactive)
same,GI50,MDA-MB-435,> 100 µM (inactive)
same,GI50,PC-3,> 100 µM (inactive)
same,GI50,BT-549,> 100 µM (inactive)
same,GI50,Malme-3M,13.7 µM (inactive)
same,GI50,SNB-19,> 100 µM (inactive)
same,GI50,SNB-75,0.116 µM (active)
same,GI50,SR,37.6 µM (inactive)
same,GI50,A498,> 100 µM (inactive)
same,GI50,TK-10,> 100 µM (inactive)
same,GI50,EKVX,25.5 µM (inactive)
same,GI50,HT-29,> 100 µM (inactive)
same,GI50,CCRF-CEM,42.5 µM (inactive)
same,GI50,SN12C,> 100 µM (inactive)
same,GI50,HCC 2998,> 100 µM (inactive)
same,GI50,SK-MEL-28,> 100 µM (inactive)
same,GI50,SK-MEL-5,73.3 µM (inactive)
same,GI50,MDA-N,> 100 µM (inactive)
same,GI50,M14,> 100 µM (inactive)
same,GI50,DU-145,> 100 µM (inactive)
same,GI50,IGROV-1,12.9 µM (inactive)
same,GI50,NCI-H522,12.2 µM (inactive)
same,GI50,RPMI-8226,83.9 µM (inactive)
same,GI50,A549,> 100 µM (inactive)
same,GI50,UACC-257,> 100 µM (inactive)
same,GI50,Hs-578T,12.5 µM (inactive)
same,GI50,U-251,> 100 µM (inactive)
same,GI50,HOP-62,> 100 µM (inactive)
same,GI50,OVCAR-3,> 100 µM (inactive)
same,GI50,UO-31,66.4 µM (inactive)
same,GI50,KM12,32.1 µM (inactive)
same,GI50,NCI-H23,> 100 µM (inactive)
same,GI50,SK-MEL-2,> 100 µM (inactive)
same,GI50,SF-295,60.7 µM (inactive)
